Where two headings read alike, the source gives them in different places.
How the values were obtained:
TCF-transcription = assay: TOPflash TCF-transcriptional reporter assay; format: cell-based, human; conditions: TOPflash reporter in CRC cell lines (SW620, HCT116, DLD1CHD1L-OE), 24 h
Experimental: TOPflash assay (Millipore, Billerica, Mass.) was used to evaluate TCF transcriptional activity in CRC cells. A total of 20,000 cells per well were plated into 96-well white plates and transfected with TransIT®-LT1 transfection reagent (Mirus, Madison, Wis.). Cells were incubated with transfection mix for 24 h. Next, cells were washed with phosphate-buffered solution (PBS) and a 1:1 ratio of PBS:ONE-Glo™ luciferase reagent Promega (Madison, Wis.) was added and the luminescence was detected within 10 min. A duplicate experiment was conducted to measure cell viability using CellTiter-Glo® Luminescent Cell Viability Assay (Promega, Madison, Wis.), which was used to normalize TOPflash luminescence to obtain the fold change in TCF activity. Experiments were replicated 2× (n=3 for each experiment).
TCF-transcriptional Reporter Assay. […] Afterwards, cells from the white solid bottom plate were carefully washed with PBS and a 1:1 ratio of PBS:One-Glo Luciferase Assay System (Promega) was added, incubated for 10 min, and luminescence was quantified on Envision plate reader (PerkinElmer) for TCF-activity. As a control, cells from the clear plate were lysed with Mammalian Cell Lysis Buffer (Promega) and the total protein from each well was quantified with BCA assay (ThermoFisher).

cat-CHD1L ATPase = target: T1, cat-CHD1L ATPase (Homo sapiens, UniProt Q86WJ1); assay: CHD1L ATPase assay with recombinant catalytic domain (cat-CHD1L); format: biochemical; conditions: for inhibition at 20 µM: confirmed HTS hits, HTS at 20 μM, read-out: inhibition against cat-CHD1L ATPase; for IC50: units given with the values (nM, μM), read-out: activity in dose response studies against cat-CHD1L ATPase (IC50, FIG. 1A)
T1 construct: inferred from Ni-NTA / imidazole purification; made in house; host or cells: E. coli Rosetta 2 (DE3) pLysS; constructs were a gift from Helena Berglund, Karolinska Institute
T1 sequence (Q86WJ1 16-611 limits assumed): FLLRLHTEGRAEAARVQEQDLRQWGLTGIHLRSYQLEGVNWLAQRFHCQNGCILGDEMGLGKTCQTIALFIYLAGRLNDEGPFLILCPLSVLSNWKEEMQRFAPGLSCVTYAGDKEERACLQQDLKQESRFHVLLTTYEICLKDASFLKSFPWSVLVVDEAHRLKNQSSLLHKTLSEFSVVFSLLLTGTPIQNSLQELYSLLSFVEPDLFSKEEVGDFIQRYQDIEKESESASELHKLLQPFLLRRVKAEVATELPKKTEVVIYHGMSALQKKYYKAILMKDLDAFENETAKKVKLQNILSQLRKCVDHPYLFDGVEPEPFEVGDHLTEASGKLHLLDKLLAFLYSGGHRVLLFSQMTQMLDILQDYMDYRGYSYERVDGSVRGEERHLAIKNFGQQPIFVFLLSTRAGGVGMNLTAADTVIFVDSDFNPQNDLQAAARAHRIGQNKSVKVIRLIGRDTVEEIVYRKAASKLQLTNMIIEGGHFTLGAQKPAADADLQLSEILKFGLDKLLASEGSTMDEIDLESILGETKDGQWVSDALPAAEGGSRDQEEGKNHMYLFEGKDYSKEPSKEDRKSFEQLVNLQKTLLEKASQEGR
Outline: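 Recombinant cat-CHD1L (100 nM) was incubated with 200 nM c-Myc DNA or mononucleosome in 50 mM Tris pH 7.5, 50 mM NaCl, 1 mM DTT and 5% glycerol, with 10 μM ATP, for 1 h at 37 °C. Background came from no-enzyme wells, with 1% DMSO and 10 mM EDTA as controls.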

SW620 tumor organoids = assay: Tumor organoid cytotoxicity (CellTiter-Glo 3D); conditions: Homo sapiens, SW-620, read-out: IC50 of cytotoxicity in SW620 cells
[1] = test system: vimentin promoter activity; assay: VimPro-GFP reporter 3D high-content imaging in tumor organoids; format: cell-based, human; conditions: 72 h
Experimental: (§1) After validating hits 5-7 against CHD1L mediated TCF transcription, the ability of these compounds to reverse EMT and other malignant properties in CRC were evaluated. E-cadherin and vimentin are putative biomarkers for the epithelial and mesenchymal phenotypes, respectively. [McDonald et al., 2015] Loss of E-cadherin and gain of vimentin are also clinical biomarkers of poor prognosis. [Yun et al., 2014; Richardson et al., 2012; Dhanasekaran et al., 2001; Kashiwagi et al., 2010; Toiyama et al., 2013] Accordingly, lentiviral promoter driven reporters for E-cadherin (pCDH1-EcadPro-RFP) and vimentin (pCDH1-VimPro-GFP) were developed, which faithfully report E-cadherin and vimentin protein expression, respectively. [Zhou et al., 2016; Abraham et al., 2019] SW620 cells transduced with either EcadPro-RFP or VimPro-GFP were cultured as tumor organoids for 72 h, reaching a diameter of 600 μm. Tumor organoids were treated with compounds 5-7 for an additional 72 h to determine the effective concentration 50 percent (EC50) for modulating promoter activity. Changes in promoter expression was quantified using a 3D confocal image […] based high-content analysis algorithm (FIG. 2A-2B). [Zhou et al., 2016; Abraham et al., 2019]
(§2) Stable VimPro-GFP or EcadPro-RFP SW620 reporter cells were generated using pCDH imPro-GFP-EF1-puro virus or pCDH-EcadPro-mCherry-EF1-puro virus as previously reported. [Zhou et al., 2016; Abraham et al., 2019] The stable fluorescently labeled reporter cells were used to generate tumor organoids as described herein. Tumor organoids were treated with CHD1L inhibitors at 10 μM for an additional 72 h. Following treatment, tumor organoids were stained with 16 μM of Hoechst 33342 for 1 h (nuclei stain). Images were taken with a 5× air objective. Z-stacks were set at 26.5 μm apart for a total of 15 optical slices. Imaging and high-content analysis were performed using an Opera Phenix™ and Harmony® software (PerkinElmer, Hopkinton, Mass.). Nuclei were identified within each layer and cells were found with either GFP or mCherry channel. The fluorescence intensities of each channel were calculated and thresholds were set based on the background intensities. Percentages of GFP or mCherry RFP positive cells were calculated and normalized to the DMSO treated group.
3D High-Content Imaging and Analysis of EMT Dual-Reporter Activity. Tumor organoids were imaged using the Opera Phenix high-content screening system (PerkinElmer) in confocal mode utilizing a 10× air objective (NA 0.3). […] Organoids were also imaged in Brightfield to segment and perform high-content analysis of dual reporter specific fluorescence intensity. […] Both fluorescent signals were quantified and normalized as previously described. […]

[2] = test system: E-cadherin promoter activity; assay: EcadPro-RFP reporter 3D high-content imaging in tumor organoids; format: cell-based; conditions: 72 h
Experimental: as §1
CHD1L has been reported to confer anti-apoptotic activity by inhibiting activation of caspase-dependent apoptosis. [Li et al., 2013; Sun et al., 2016] Additionally, reversal or inhibition of EMT is known to restore apoptotic activity of cancer cells. [Lu et al., 2014] To determine if CHD1L inhibitors reverse EMT prior to induction of cell death, E-cadherin expression by EcadPro-RFP reporter activity was monitored and cytotoxicity was measured using the CellTox™ Green assay. Cells were treated with CHD1L inhibitors for 72 h and imaged every 2 h.
as §2
3D High-Content Imaging and Analysis of EMT Dual-Reporter Activity. Tumor organoids were imaged using the Opera Phenix high-content screening system (PerkinElmer) in confocal mode utilizing a 10× air objective (NA 0.3). The following excitation and emission (Ex/Em) wavelengths were employed: RFP (561/570-630) and GFP (488/500-550). Organoids were also imaged in Brightfield to segment and perform high-content analysis of dual reporter specific fluorescence intensity. RFP fluorescent signal correlates with E-Cadherin promoter activity, while GFP fluorescent signal is correlates with vimentin promoter activity. Both fluorescent signals were quantified and normalized as previously described. (Esquer, et al., 2021)

HCT116 tumor organoids = assay: Tumor organoid cytotoxicity (CellTiter-Glo 3D); format: cell-based, human; conditions: Homo sapiens
Experimental: Cell based cytotoxicity dose response and combination studies. […] Plates were then incubated for 3 days before treatment.
Cell Line Tumor Organoid Culture.
Tumor Organoid Cytotoxicity.

[3] = Mouse liver microsome stability; conditions: CD-1, mouse, liver microsomes, pH 7.4, Microsomal stability Mouse t1/2 (min), Table 6
Experimental: Microsome stability. CD-1 mouse microsomes were commercially purchased and the reactions were performed as previously described. […] The master mix was pre-incubated at 37° C. for 5 min, then 1 mM NADPH was added to start the microsomal activity reaction and maintained at 37° C. throughout the time course. Reactions were stopped at 0, 5, 15, 30, 45, and 60 min by adding 200 μL acetonitrile and analyzed by mass spectrometry. The appropriate microsome controls were also performed in the same reaction conditions.

[4] = SW620 or HCT116 tumor organoids

Row | Compound | inhibition of TCF-transcription, in words (TCF-transcription) | inhibition at 20 µM (cat-CHD1L ATPase) [%] | IC50 (cat-CHD1L ATPase) [nM] | IC50 (SW620 tumor organoids) [µM] | downregulation of vimentin promoter activity (VimPro-GFP), in words [1, 4] | upregulation of E-cadherin promoter activity (EcadPro-RFP), in words [2, 4] | IC50 (HCT116 tumor organoids; HCT-116, 72 h, Table 6, read-out: 3 D Cytotoxicity 72 hr IC50 (μM) HCT116) [µM] | IC50 (HCT116 tumor organoids; HCT-116, single agent, Table 4A, read-out: Tumor Organoid Cytotoxicity IC50 (μM) HCT116) [µM] | half-life at 10 μM [3] [h] | EC50 ([1]; Homo sapiens, SW-620, read-out: EC50 downregulation of vimentin promoter activity, SW620 tumor organoids) [µM] | EC50 ([2]; Homo sapiens, SW-620, read-out: EC50 upregulation of E-cadherin promoter activity, SW620 tumor organoids) [µM]
1 | CCc1nnc(NS(=O)(=O)c2ccc(NC(=O)c3nc4ccccc4s3)cc2)s1 [Compound 4] | modest activity in cells with no dose dependent inhibition | > 50 | 900 to 5000 | – | – | – | – | – | – | – | –
2 | Cc1cc(Nc2ccc(NC(=O)Cc3c[nH]c4ccccc34)cc2)nc(N2CCCC2)n1 [Compound 6.5, 2-(1H-indol-3-yl)-N-(4-((6-methyl-2-(pyrrolidin-1-yl)pyrimidin-4-yl)amino)phenyl)acetamide] | – | – | – | < 10 | marked down-regulation of the VimPro-GFP | upregulation of EcadPro-RFP | 2.2 | 2.2 | 1.17 | – | –
3 | Cc1ccc(Nc2nc(N3CCN(CCO)CC3)nc3nccnc23)cc1Cl [Compound 7] | – | > 50 | 900 to 5000 | – | – | – | – | – | – | 12.8 ± 1.3 | 28 ± 0.003

From patent US20230103444A1 (The Regents of the University of Colorado, a Body Corporate, priority 2020, published 2023)
